From article PMC5567267, “Discovery of a potent protein kinase D inhibitor: insights in the binding mode of pyrazolo[3,4-d]pyrimidine analogues” (MedChemComm, 2017)
Like-named read-outs stand apart in the source and are kept apart here.

How the values were obtained:
[1] = target: T1, PKD2 (Homo sapiens, UniProt Q9BZL6); assay: PKD2 screening assay (in vitro radiometric kinase assay); format: biochemical; details: for remaining activity at 1 µM: 10 min
T1 construct: made in house; host or cells: HEK293T cells, transient transfection with pDEST27-PRKD2, stimulated with 500 nM PDB before lysis
T1 sequence (Q9BZL6 1-878): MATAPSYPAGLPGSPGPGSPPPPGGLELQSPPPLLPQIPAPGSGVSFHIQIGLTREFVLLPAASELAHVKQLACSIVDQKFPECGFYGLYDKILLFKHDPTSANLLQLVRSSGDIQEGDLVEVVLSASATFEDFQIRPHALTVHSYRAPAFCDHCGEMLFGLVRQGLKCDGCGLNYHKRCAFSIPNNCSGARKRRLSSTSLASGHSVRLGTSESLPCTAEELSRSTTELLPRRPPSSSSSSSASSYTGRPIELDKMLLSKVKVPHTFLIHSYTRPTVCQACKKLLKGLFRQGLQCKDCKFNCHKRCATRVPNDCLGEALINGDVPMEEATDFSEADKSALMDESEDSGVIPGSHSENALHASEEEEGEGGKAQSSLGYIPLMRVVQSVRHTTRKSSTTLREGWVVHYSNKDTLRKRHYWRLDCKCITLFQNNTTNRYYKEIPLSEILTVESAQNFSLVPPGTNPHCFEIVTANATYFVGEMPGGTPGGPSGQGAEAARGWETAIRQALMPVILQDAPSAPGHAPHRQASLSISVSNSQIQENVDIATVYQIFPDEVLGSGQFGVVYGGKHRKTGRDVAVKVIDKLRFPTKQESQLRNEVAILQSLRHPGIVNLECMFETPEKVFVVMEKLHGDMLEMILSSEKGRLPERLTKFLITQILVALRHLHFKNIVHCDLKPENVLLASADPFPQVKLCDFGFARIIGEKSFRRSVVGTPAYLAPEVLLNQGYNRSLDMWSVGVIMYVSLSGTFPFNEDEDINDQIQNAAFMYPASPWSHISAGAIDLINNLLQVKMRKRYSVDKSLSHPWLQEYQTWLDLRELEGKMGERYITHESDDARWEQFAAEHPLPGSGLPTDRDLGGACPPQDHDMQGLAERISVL
Method: All 35 described analogues were characterized in vitro via an initial screening at 1 μM against PKD2. […]
scanning of a coomassie stained SDS-polyacrylamide gel.
An in vitro radiometric assay was used to determine the inhibition of PKD in presence of various compounds at a […]
determinations. Reactions were carried out in 40µl of a mixture containing 50mM Tris-HCl pH 7.4, 10mM MgCl2, 50ng of PDB stimulated GST-PKD2, 4µg/ml Syntide-2 (Sigma Aldrich, St. Louis, USA), 25µM ATP and 2µCi [γ-32P]ATP (Perkin-Elmer, Massachusetts, USA). After 10’ the reaction was stopped by spotting 30µl of the reaction on whatmann P81 filter paper. The filter papers were washed 3 times in 0.5% phosphoric acid, followed by one wash in 100% acetone. Subsequently the papers were air-dried and counted using the Tri-Carb 2810 TR scintillation counter (Perkin-Elmer). Percentage of PKD2 inhibition was determined relative to a condition where no inhibitor was added (0,1% dimethylsulfoxide (DMSO)). Graphs were plotted and IC50 values were determined using the GraphPad software package (Prism). […]

[2] = target: T1, PKD2; assay: Cellular screening assay using phospho-cortactin (Ser-298) as a readout; format: cell-based; details: HEK293T cells co-transfected with FLAG-PRKD2 and myc-CTTN; for cellular activity against PKD2 (in words): pSer-298 cortactin western blot; for inhibition at 40 µM: HEK-293T, 40 μM compound, 30 min pretreatment, 500 nM PDB 15 min, read-out: inhibition of PKD2 mediated cortactin Ser-298 phosphorylation
Source text: Therefore we used a cellular assay in which we were able to specifically follow PKD mediated phosphorylation of cortactin, a known PKD substrate, at Ser-298.[15] […] Cortactin phosphorylation at Ser-298 in our assay was PKD-specific, since co-transfection of PKD and cortactin was necessary to produce an adequate signal (data not shown). We selected four compounds for further validation in a cellular assay against PKD2 (Fig. 5).
Fig. 5 The effect of 1-NM-PP1 analogues on PKD mediated phosphorylation of cortactin at Ser-298. HEK293T cells co-transfected with FLAG-PRKD2 and myc-CTTN were pretreated with the indicated compounds for 30 min prior to stimulation with 500 nM Phorbol 12,13-dibutyrate (PDB) for 15 min. Phosphorylation of cortactin was followed via western blot using a home-made pSer-298 antibody and subsequently reprobed for total cortactin (anti-c-Myc; 9E10) and PKD (anti-FLAG M2). Quantification of pSer-298/c-Myc signals of three independent experiments is shown in the graph below. […]
Cellular screening assay using phospho-cortactin as a readout
HEK293T cells were seeded in a 12-well plate at 150.000 cells/well. The next day, cells were transfected with 0.5µg of pcDNA3-Myc-CTTN and 0.5µg of pdcDNA-FLAG-PRKD2. Forty-eight hours after transfection, cells were incubated with compound at the indicated concentrations for 30 min, followed by stimulation with 500nM phorbol 12,13-dibutyrate (PDB) for 15 min. Subsequently, cells were lysed in 50mM Tris pH 7.4, 15mM EDTA, 150mM NaCl, 0.1% (v/v) NP-40 and 25% (v/v) glycerol. Protein quantitation was determined via a Bradford assay. Equal amounts of lysate (30µg) were loaded on a SDS-polyacrylamide gel and subjected to immunoblotting. Blots were probed with Cortactin pSer-298 antibody (home-made) and anti-tubulin antibody (Sigma, St. Louis, Missouri). Subsequently, blots were stripped and reprobed with anti-Myc 9E10 (Sigma, St.
Louis, Missouri) for cortactin and anti-FLAG M2 (Sigma, St. Louis, Missouri) for PKD2.

[3] = system: PKD; design: method as in Wang group; details: previously reported value; different assay setup and enzyme preparation; ref Wang group; cited from earlier work
[4] = ESI table, initial screening of all analogues at 1µM, read-out: % PKD2 activity remaining (1µM) (average ±SD)
[5] = compound at 1 μM, PDB stimulated GST-PKD2, Syntide-2, 25µM ATP, relative to no inhibitor (DMSO), read-out: % PKD 2 activity remaining (1 μM) (Average ± SD)
[6] = PDB stimulated GST-PKD2, Syntide-2, 25µM ATP, radiometric

| remaining activity at 1 µM [1, 4] [%] | remaining activity at 1 µM [1, 5] [%] | IC50 [1, 6] [nM] | cellular activity against PKD2 (in words) [2] | fold increase in potency compared to 1-NM-PP1 ([1]; PKD2 IC50 relative to 1-NM-PP1) [fold] | IC50 ([1]; in vitro potency as stated in the conclusions) [nM] | SMILES | inhibition at 40 µM [2] [%] | IC50 [3] [nM] |
| --- | --- | --- | --- | --- | --- | --- | --- | --- |
| 89 ± 6.2 | 89 ± 6.2 | 8170 | negligible cellular activity |  |  | CCCCNc1nc(N)c2c(-c3cccc4ccccc34)nn(C(C)(C)C)c2n1 [Compound 13h, N6-butyl-1-tert-butyl-3-(1-naphthyl)-1H-pyrazolo[3,4-d]pyrimidine-4,6-diamine] |  |  |
| 53 ± 7.1 | 53 ± 7.1 | 2210 | did not show cellular activity |  |  | CC(C)(C)n1nc(-c2cc3ccccc3s2)c2c(N)ncnc21 [Compound 6l] |  |  |
| 8 ± 0.8 | 8 ± 0.8 | 33 | dose-dependent inhibition | 10 | ~33 | CC(C)(C)n1nc(-c2c[nH]c3ccccc23)c2c(N)ncnc21 [Compound 18, 1-tert-butyl-3-(1H-indol-3-yl)-1H-pyrazolo[3,4-d]pyrimidin-4-amine] | 85 |  |

| SMILES | remaining activity at 1 µM [1, 4] [%] | remaining activity at 1 µM [1, 5] [%] | IC50 [1, 6] [nM] | cellular activity against PKD2 (in words) [2] | fold increase in potency compared to 1-NM-PP1 ([1]; PKD2 IC50 relative to 1-NM-PP1) [fold] | IC50 ([1]; in vitro potency as stated in the conclusions) [nM] | inhibition at 40 µM [2] [%] | IC50 [3] [nM] |
| --- | --- | --- | --- | --- | --- | --- | --- | --- |
| CC(C)(C)n1nc(Cc2cccc3ccccc23)c2c(N)ncnc21 [Compound 1, 1-tert-butyl-3-(1-naphthylmethyl)-1H-pyrazolo[3,4-d]pyrimidin-4-amine, reference compound] | 23 ± 1.7 | 23 ± 1.7 | 398 | dose-dependent inhibition |  |  | 50 | 133 |
